Experimental data: patent publication US10174016B2 (BAYER AKTIENGESELLSCHAFT, priority 2014, dated 2019)
pIC50: −log10 of the molar value.

Columns and labels:
human P2X3 receptor = human P2X3 receptor (Homo sapiens (Human), UniProt P56373); test: Intracellular calcium measurement (FLIPR, Fluo-4) of antagonist activity at human P2X3 receptors; assay type: cell-based; conditions: human P2X3, FLIPR calcium assay, agonist α,β-Me-ATP; read-out: hP2X3 IC50
Summary of the method: (§1)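 Cells expressing human P2X3 or P2X2/3, loaded with Fluo-4, preincubated 30 min at 37° C. with compound (1% DMSO final), then challenged with α,β-Me-ATP at its EC80. Peak FLIPR fluorescence over 90 sec gave % response; IC50, maximal inhibition and Hill slope from triplicates.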

human P2X2/3 receptor = human P2X2/3 receptor (Homo sapiens (Human), UniProt P56373+Q9UBL9); test: Intracellular calcium measurement (FLIPR, Fluo-4) of antagonist activity at human P2X2/3 receptors; assay type: cell-based; conditions: human P2X2/3, FLIPR calcium assay, agonist α,β-Me-ATP; read-out: hP2X2/3 IC50
Summary of the method: as §1

human P2X2/3 receptor, sequence (P56373 whole entry): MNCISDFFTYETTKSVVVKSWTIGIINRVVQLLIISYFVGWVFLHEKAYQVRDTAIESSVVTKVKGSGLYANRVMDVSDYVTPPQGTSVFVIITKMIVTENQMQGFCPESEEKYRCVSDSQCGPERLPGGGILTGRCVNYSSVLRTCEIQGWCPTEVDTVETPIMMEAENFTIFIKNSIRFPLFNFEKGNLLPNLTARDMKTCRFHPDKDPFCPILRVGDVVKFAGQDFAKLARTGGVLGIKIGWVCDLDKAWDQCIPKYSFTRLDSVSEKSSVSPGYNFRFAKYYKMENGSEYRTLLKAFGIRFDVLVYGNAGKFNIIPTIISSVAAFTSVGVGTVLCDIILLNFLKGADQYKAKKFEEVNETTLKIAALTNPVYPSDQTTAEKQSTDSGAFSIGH
human P2X2/3 receptor, sequence (Q9UBL9 whole entry): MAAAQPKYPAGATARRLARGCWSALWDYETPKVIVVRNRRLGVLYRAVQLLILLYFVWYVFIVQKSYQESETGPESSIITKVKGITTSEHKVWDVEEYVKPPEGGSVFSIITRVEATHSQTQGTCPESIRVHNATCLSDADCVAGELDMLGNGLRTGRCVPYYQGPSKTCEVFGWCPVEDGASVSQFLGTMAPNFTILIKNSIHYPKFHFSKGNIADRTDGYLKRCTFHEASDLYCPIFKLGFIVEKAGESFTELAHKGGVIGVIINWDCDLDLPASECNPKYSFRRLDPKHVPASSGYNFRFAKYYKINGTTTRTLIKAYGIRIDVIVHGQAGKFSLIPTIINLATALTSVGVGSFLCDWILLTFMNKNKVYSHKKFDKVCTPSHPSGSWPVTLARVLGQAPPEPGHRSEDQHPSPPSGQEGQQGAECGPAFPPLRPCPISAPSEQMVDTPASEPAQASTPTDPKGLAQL
human P2X3 receptor, sequence (P56373 whole entry): as the sequence (P56373 whole entry) above

| Compound | pIC50 (human P2X3 receptor) | pIC50 (human P2X2/3 receptor) |
| --- | --- | --- |
| Cc1cnc(-c2cc(OCC3CC(F)CN3C)cc(C(=O)N[C@H](C)c3ccc(C(F)(F)F)nc3)c2)s1 (stereo partly drawn) [Example 365, 3-{[4-fluoro-1-methylpyrrolidin-2-yl]methoxy}-5-(5-methyl-1,3-thiazol-2-yl)-N-{(1R)-1-[6-(trifluoromethyl)pyridin-3-yl]ethyl}benzamide] | 7.68 | 5.98 |
| Cc1cnc(-c2cc(OC[C@@H]3CN(C)CCO3)cc(C(=O)NCc3cnc(C(F)(F)F)nc3)c2)s1 [Example 368, 3-{[(2S)-4-methylmorpholin-2-yl]methoxy}-5-(5-methyl-1,3-thiazol-2-yl)-N-{[2-(trifluoromethyl)pyrimidin-5-yl]methyl}benzamide] | 7.08 | 5.96 |
| Cc1cnc(-c2cc(OC[C@@H]3CN(C)CCO3)cc(C(=O)N[C@H](C)c3ccc(C(F)(F)F)nc3)c2)s1 [Example 370, 3-{[(2S)-4-methylmorpholin 2-yl]methoxy}-5-(5-methyl-1,3-thiazol-2-yl)-N-{(1R)-1-[6-(trifluoromethyl)pyridin-3-yl]ethyl}benzamide] | 7.39 | 6.00 |
| Cc1cnc(-c2cc(OCC3(F)CN(C)C3)cc(C(=O)N[C@H](C)c3cnc(C(F)(F)F)nc3)c2)s1 [Example 371, 3-[(3-fluoro-1-methylazetidin-3-yl}methoxy]-5-(5-methyl-1,3-thiazol-2-yl)-N-{(1R)-1-[2-(trifluoromethyl)pyrimidin-5-yl]ethyl}benzamide] | 7.62 | 5.93 |
| Cc1cnc(-c2cc(OC[C@H]3CN(C)CCO3)cc(C(=O)NCc3cnc(C(F)(F)F)nc3)c2)s1 [Example 372, 3-{[(2R)-4-methylmorpholin-2-yl]methoxy}-5-(5-methyl-1,3-thiazol-2-yl)-N-{[2-(trifluoromethyl)pyrimidin-5-yl]methyl}benzamide] | 7.72 | 5.92 |
| Cc1cnc(-c2cc(OC[C@H]3CN(C)CCO3)cc(C(=O)N[C@H](C)c3ccc(C(F)(F)F)nn3)c2)s1 [Example 373, 3-{[(2R)-4-methylmorpholin-2-yl]methoxy}-5-(5-methyl-1,3-thiazol-2-yl)-N-{(1R)-1-[6-(trifluoromethyl)pyridazin-3-yl]ethyl}benzamide] | 7.68 | 5.55 |
| Cc1cnc(-c2cc(OC[C@@H]3CN(C)CCO3)cc(C(=O)N[C@H](C)c3ccc(C(F)(F)F)nn3)c2)s1 [Example 374, 3-{[(2S)-4-methylmorpholin-2-yl]methoxy}-5-(5-methyl-1,3-thiazol-2-yl)-N-{(1R)-1-[6-(trifluoromethyl)pyridazin-3-yl]ethyl}benzamide] | 7.26 | 5.59 |
| C[C@@H](NC(=O)c1cc(OC[C@@H]2CN(C)CCO2)cc(-c2ncc(Cl)s2)c1)c1cnc(C(F)(F)F)nc1 [Example 376, 3-(5-chloro-1,3-thiazol-2-yl)-5-{[(2S)-4-methylmorpholin-2-yl]methoxy}-N-{(1R)-1-[2-(trifluoromethyl)pyrimidin-5-yl]ethyl}benzamide] | 7.49 | 6.05 |
| Cc1cnc(-c2cc(OC[C@@H]3CCCN3C)cc(C(=O)N[C@H](C)c3cnc(C(F)(F)F)nc3)c2)s1 [Example 378, 3-{[(2S)-1-methylpyrrolidin-2-yl]methoxy}-5-(5-methyl-1,3-thiazol-2-yl)-N-{(1R)-1-[2-(trifluoromethyl)pyrimidin-5-yl]ethyl}benzamide] | 7.22 | 5.43 |
| Cc1cnc(-c2cc(OC[C@H]3CCCN3C)cc(C(=O)N[C@H](C)c3cnc(C(F)(F)F)nc3)c2)s1 [Example 379, 3-{[(2R)-1-methylpyrrolidin-2-yl]methoxy}-5 (5-methyl-1,3-thiazol-2-yl)-N-{(1R)-1-[2-(trifluoromethyl)pyrimidin-5-yl]ethyl}benzamide] | 7.38 | 5.56 |
| Cc1cnc(-c2cc(OCC3CCN(C)CC3)cc(C(=O)N[C@H](C)c3cnc(C(F)(F)F)nc3)c2)s1 [Example 380, 3-[(1-methylpiperidin-4-yl)methoxy]-5-(5-methyl-1,3-thiazol-2-yl)-N-{(1R)-1-[2-(trifluoromethyl)pyrimidin-5-yl]ethyl}benzamide] | 7.49 | 5.54 |
| Cc1cnc(-c2cc(OCC3(F)CN(C)C3)cc(C(=O)N[C@H](C)c3ccc(C(F)(F)F)nc3)c2)s1 [Example 386, 3-[(3-fluoro-1-methylazetidin-3-yl)methoxy]-5-(5-methyl-1,3-thiazol-2-yl)-N-{(1R)-1-[6-(trifluoromethyl)pyridin-3-yl]ethyl}benzamide] | 7.62 | 6.09 |
| CCc1cnc(-c2cc(OCC3(F)CN(C)C3)cc(C(=O)N[C@H](C)c3ccc(C(F)(F)F)nc3)c2)s1 [Example 387, 3-(5-ethyl-1,3-thiazol-2-yl)-5-[(3-fluoro-1-methylazetidin-3-yl)methoxy]-N-{(1R)-1-[6-(trifluoromethyl)pyridin-3-yl]ethyl}benzamide] | 7.72 | 6.34 |
| Cc1cnc(-c2cc(OC[C@@H]3COCCN3C)cc(C(=O)N[C@H](C)c3ccc(C(F)(F)F)nn3)c2)s1 [Example 389, 3-{[(3S)-4-methylmorpholin-3-yl]methoxy}-5-(5-methyl-1,3-thiazol-2-yl)-N-{(1R)-1-[6-(trifluoromethyl)pyridazin-3-yl]ethyl}benzamide] | 7.74 | 5.79 |
| Cc1cnc(-c2cc(OC[C@H]3CN(CC(F)F)CCO3)cc(C(=O)N[C@H](C)c3cnc(C(F)(F)F)nc3)c2)s1 [Example 391, 3-{[(2R)-4-(2,2-difluoroethyl)morpholin-2-yl]methoxy}-5-(5-methyl-1,3-thiazol-2-yl)-N-{(1R)-1-[2-(trifluoromethyl)pyrimidin-5-yl]ethyl}benzamide] | 7.72 | 6.08 |
| COC(=O)N1CCO[C@H](COc2cc(C(=O)N[C@H](C)c3cnc(C(F)(F)F)nc3)cc(-c3ncc(C)s3)c2)C1 [Example 393, methyl (2S)-2-{[3-(5-methyl-1,3-thiazol-2-yl)-5-({(1R)-1-[2-(trifluoromethyl)pyrimidin-5-yl]ethyl}carbamoyl)phenoxy]methyl}morpholine-4-carboxylate] | 7.62 | 5.99 |
| Cc1cnc(-c2cc(OCC3CNC3)cc(C(=O)N[C@H](C)c3cnc(C(F)(F)F)nc3)c2)s1 [Example 394, 3-(Azetidin-3-ylmethoxy)-5-(5-methyl-1,3-thiazol-2-yl)-N-{(1R)-1-[2-(trifluoromethyl)pyrimidin-5-yl]ethyl}benzamide] | 7.09 | 5.40 |

Further molecules by rising pIC50 (human P2X3 receptor), results first:

| pIC50 (human P2X3 receptor) | pIC50 (human P2X2/3 receptor) | Compound |
| --- | --- | --- |
| 7.74 | 6.01 | Cc1cnc(-c2cc(OC[C@H]3CN(C)CCO3)cc(C(=O)N[C@H](C)c3ccc(C(F)(F)F)nc3)c2)s1 [Example 366, 3-{[(2R)-4-methylmorpholin-2-yl]methoxyl}-5-(5-methyl-1,3-thiazol-2-yl)-N-{(1R)-1-[6-(trifluoromethyl)pyridin-3-yl]ethyl}benzamide] |
| 7.74 | 5.87 | Cc1cnc(-c2cc(OC[C@H]3COCCN3C)cc(C(=O)N[C@H](C)c3ccc(C(F)(F)F)nn3)c2)s1 [Example 388, 3-{[(3R)-4-methylmorpholin-3-yl]methoxy}-5-(5-methyl-1,3-thiazol-2-yl)-N-{(1R)-1-[6-(trifluoromethyl)pyridazin-3-yl]ethyl}benzamide] |
| 7.77 | 6.09 | CCN1CCO[C@@H](COc2cc(C(=O)N[C@H](C)c3cnc(C(F)(F)F)nc3)cc(-c3ncc(C)s3)c2)C1 [Example 390, 3-{[(2R)-4-ethylmorpholin-2-yl]methoxy}-5-(5-methyl-1,3-thiazol-2-yl)-N-{(1R)-1-[2-(trifluoromethyl)pyrimidin-5-yl]ethyl}benzamide] |
| 7.80 | 6.02 | Cc1cnc(-c2cc(OC[C@H]3CN(C(C)C)CCO3)cc(C(=O)N[C@H](C)c3cnc(C(F)(F)F)nc3)c2)s1 [Example 381, 3-(5-methyl-1,3-thiazol-2-yl)-5-{[(2R)-4-(propan-2-yl)morpholin-2-yl]methoxy}-N-{(1R)-1-[2-(trifluoromethyl)pyrimidin-5-yl]ethyl}benzamide] |
| 7.89 | 6.30 | C[C@@H](NC(=O)c1cc(OC[C@H]2CN(C)CCO2)cc(-c2ncc(Cl)s2)c1)c1cnc(C(F)(F)F)nc1 [Example 367, 3-(5-chloro-1,3-thiazol-2-yl)-5-{[(2R)-4-methylmorpholin-2-yl]methoxy}-N-{(1R)-1-[2-(trifluoromethyl)pyrimidin-5-yl]ethyl}benzamide] |
| 7.96 | 6.48 | Cc1cnc(-c2cc(OC[C@H]3CN(C)CCO3)cc(C(=O)N[C@H](C)c3ccc(C(F)F)nc3)c2)s1 [Example 369, N-{(1R)-1-[6-(difluoromethyl)pyridin-3-yl]ethyl}-3-{[(2R)-4-methylmorpholin-2-yl]methoxy}-5-(5-methyl-1,3-thiazol-2-yl)benzamide] |
| 7.96 | 6.73 | CCc1cnc(-c2cc(OC[C@@H]3CN(C)CCO3)cc(C(=O)N[C@H](C)c3cnc(C(F)(F)F)nc3)c2)s1 [Example 375, 3-(5-ethyl-1,3-thiazol-2-yl)-5-{[(2S)-4-methylmorpholin-2-yl]methoxy}-N-{(1R)-1-[2-(trifluoromethyl)pyrimidin-5-yl]ethyl}benzamide] |
| 7.96 | 6.39 | COC(=O)N1CCO[C@@H](COc2cc(C(=O)N[C@H](C)c3cnc(C(F)(F)F)nc3)cc(-c3ncc(C)s3)c2)C1 [Example 392, Methyl (2R)-2-{[3-(5-methyl-1,3-thiazol-2-yl)-5-({(1R)-1-[2-(trifluoromethyl)pyrimidin-5-yl]ethyl}carbamoyl)phenoxy]methyl}morpholine-4-carboxylate] |
| 8.30 | 6.56 | CCc1cnc(-c2cc(OC[C@H]3CN(C)CCO3)cc(C(=O)N[C@H](C)c3cnc(C(F)(F)F)nc3)c2)s1 [Example 377, 3-(5-ethyl-1,3-thiazol-2-yl)-5-{[(2R)-4-methylmorpholin-2-yl]methoxy}-N-{(1R)-1-[2-(trifluoromethyl)pyrimidin-5-yl]ethyl}benzamide] |
